Active and inactive are the calls of the source. No cut-off for these calls is given here. Residues, ends and D or L forms follow the SMILES beside them.
The molecules below were run against Growth/differentiation factor 8 (Homo sapiens) (UniProt O14793) (assay: Inhibition of myostatin (unknown origin) expressed in HEK293 cells at 10 uM incubated for 4 hrs by dual luciferase reporter gene assay).
Type: cell-based

Sequence of Growth/differentiation factor 8 (Homo sapiens) (O14793 267-375 limits assumed): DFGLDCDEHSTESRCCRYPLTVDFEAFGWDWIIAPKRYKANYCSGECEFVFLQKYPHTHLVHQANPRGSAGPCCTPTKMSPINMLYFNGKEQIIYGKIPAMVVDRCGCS

| SMILES | inhibition |
| --- | --- |
| CC[C@H](C)[C@H](NC(=O)[C@H](CCSC)NC(=O)[C@H](Cc1c[nH]c2ccccc12)NC(=O)[C@H](CCCCN)NC(=O)[C@H](C)NC(=O)[C@H](CC(C)C)NC(=O)[C@@H](NC(=O)[C@H](CC(N)=O)NC(=O)[C@H](CC(=O)O)NC(=O)[C@H](CC(N)=O)NC(=O)[C@@H](N)C(C)C)[C@@H](C)O)C(=O)N[C@@H](Cc1ccccc1)C(=O)N[C@@H](CC(N)=O)C(=O)NCC(N)=O (H-VNDNTLAKWMIFNG-NH2) | inactive |
| CC[C@H](C)[C@H](NC(=O)[C@H](CCSC)NC(=O)[C@H](Cc1c[nH]c2ccccc12)NC(=O)[C@H](CCCCN)NC(=O)[C@H](Cc1ccccc1)NC(=O)[C@H](CC(C)C)NC(=O)[C@@H](NC(=O)[C@H](CC(N)=O)NC(=O)[C@H](C)NC(=O)[C@H](CC(N)=O)NC(=O)[C@@H](N)C(C)C)[C@@H](C)O)C(=O)N[C@@H](Cc1ccccc1)C(=O)N[C@@H](CC(N)=O)C(=O)NCC(N)=O (H-VNANTLFKWMIFNG-NH2) | Active |
| CC[C@H](C)[C@H](NC(=O)[C@H](CCSC)NC(=O)[C@H](Cc1c[nH]c2ccccc12)NC(=O)[C@H](CCCCN)NC(=O)[C@H](Cc1ccccc1)NC(=O)[C@H](CC(C)C)NC(=O)[C@@H](NC(=O)[C@H](CC(N)=O)NC(=O)[C@H](CC(=O)O)NC(=O)[C@H](CC(N)=O)NC(=O)[C@@H](NC(=O)[C@H](CC(=O)O)NC(=O)[C@H](CCC(=O)O)NC(=O)[C@H](CCC(=O)O)NC(=O)[C@@H](NC(=O)[C@@H](N)Cc1c[nH]c2ccccc12)[C@@H](C)O)C(C)C)[C@@H](C)O)C(=O)N[C@@H](Cc1ccccc1)C(=O)N[C@@H](CC(N)=O)C(=O)NCC(N)=O (H-WTEEDVNDNTLFKWMIFNG-NH2) | inactive |
| CC[C@H](C)[C@H](NC(=O)[C@H](CCSC)NC(=O)[C@H](Cc1c[nH]c2ccccc12)NC(=O)[C@H](CCCCN)NC(=O)[C@H](Cc1ccccc1)NC(=O)[C@H](CC(C)C)NC(=O)[C@@H](NC(=O)[C@H](CC(N)=O)NC(=O)[C@H](CC(=O)O)NC(=O)[C@H](C)NC(=O)[C@@H](N)C(C)C)[C@@H](C)O)C(=O)N[C@@H](Cc1ccccc1)C(=O)N[C@@H](CC(N)=O)C(=O)NCC(N)=O (H-VADNTLFKWMIFNG-NH2) | inactive |
| CSCC[C@H](NC(=O)[C@H](Cc1c[nH]c2ccccc12)NC(=O)[C@H](CCCCN)NC(=O)[C@H](Cc1ccccc1)NC(=O)[C@H](CC(C)C)NC(=O)[C@@H](NC(=O)[C@H](CC(N)=O)NC(=O)[C@H](CC(=O)O)NC(=O)[C@H](CC(N)=O)NC(=O)[C@@H](N)C(C)C)[C@@H](C)O)C(=O)N[C@@H](C)C(=O)N[C@@H](Cc1ccccc1)C(=O)N[C@@H](CC(N)=O)C(=O)NCC(N)=O (H-VNDNTLFKWMAFNG-NH2) | inactive |
| CC[C@H](C)[C@H](NC(=O)[C@H](CCSC)NC(=O)[C@H](Cc1c[nH]c2ccccc12)NC(=O)[C@H](C)NC(=O)[C@H](Cc1ccccc1)NC(=O)[C@H](CC(C)C)NC(=O)[C@@H](NC(=O)[C@H](CC(N)=O)NC(=O)[C@H](CC(=O)O)NC(=O)[C@H](CC(N)=O)NC(=O)[C@@H](N)C(C)C)[C@@H](C)O)C(=O)N[C@@H](Cc1ccccc1)C(=O)N[C@@H](CC(N)=O)C(=O)NCC(N)=O (H-VNDNTLFAWMIFNG-NH2) | inactive |
| CC[C@H](C)[C@H](NC(=O)[C@H](CCSC)NC(=O)[C@H](Cc1c[nH]c2ccccc12)NC(=O)[C@H](CCCCN)NC(=O)[C@H](Cc1ccccc1)NC(=O)[C@H](CC(C)C)NC(=O)[C@@H](NC(=O)[C@H](CC(N)=O)NC(=O)[C@H](CC(=O)O)NC(=O)[C@@H](N)CC(N)=O)[C@@H](C)O)C(=O)N[C@@H](Cc1ccccc1)C(=O)N[C@@H](CC(N)=O)C(=O)NCC(N)=O (H-NDNTLFKWMIFNG-NH2) | inactive |
| CC[C@H](C)[C@H](NC(=O)[C@H](C)NC(=O)[C@H](Cc1c[nH]c2ccccc12)NC(=O)[C@H](CCCCN)NC(=O)[C@H](Cc1ccccc1)NC(=O)[C@H](CC(C)C)NC(=O)[C@@H](NC(=O)[C@H](CC(N)=O)NC(=O)[C@H](CC(=O)O)NC(=O)[C@H](CC(N)=O)NC(=O)[C@@H](N)C(C)C)[C@@H](C)O)C(=O)N[C@@H](Cc1ccccc1)C(=O)N[C@@H](CC(N)=O)C(=O)NCC(N)=O (H-VNDNTLFKWAIFNG-NH2) | inactive |
| CC[C@H](C)[C@H](NC(=O)[C@H](CCSC)NC(=O)[C@H](Cc1c[nH]c2ccccc12)NC(=O)[C@H](CCCCN)NC(=O)[C@H](Cc1ccccc1)NC(=O)[C@H](CC(C)C)NC(=O)[C@@H](NC(=O)[C@H](CC(N)=O)NC(=O)[C@H](CC(=O)O)NC(=O)[C@@H](N)CC(N)=O)[C@@H](C)O)C(=O)N[C@@H](Cc1ccccc1)C(=O)N[C@@H](CC(N)=O)C(N)=O (H-NDNTLFKWMIFN-NH2) | Active |
| CC[C@H](C)[C@H](NC(=O)[C@H](CCSC)NC(=O)[C@H](Cc1c[nH]c2ccccc12)NC(=O)[C@H](CCCCN)NC(=O)[C@H](Cc1ccccc1)NC(=O)[C@H](CC(C)C)NC(=O)[C@@H](NC(=O)[C@H](CC(N)=O)NC(=O)[C@H](CC(=O)O)NC(=O)[C@H](CC(N)=O)NC(=O)[C@@H](N)C(C)C)[C@@H](C)O)C(=O)N[C@@H](Cc1ccccc1)C(=O)N[C@@H](CC(N)=O)C(N)=O (H-VNDNTLFKWMIFN-NH2) | inactive |
| CC[C@H](C)[C@H](NC(=O)[C@H](CCSC)NC(=O)[C@H](Cc1c[nH]c2ccccc12)NC(=O)[C@H](CCCCN)NC(=O)[C@H](Cc1ccccc1)NC(=O)[C@H](CC(C)C)NC(=O)[C@H](C)NC(=O)[C@H](CC(N)=O)NC(=O)[C@H](CC(=O)O)NC(=O)[C@H](CC(N)=O)NC(=O)[C@@H](N)C(C)C)C(=O)N[C@@H](Cc1ccccc1)C(=O)N[C@@H](CC(N)=O)C(=O)NCC(N)=O (H-VNDNALFKWMIFNG-NH2) | inactive |
| CC[C@H](C)[C@H](NC(=O)[C@H](CCSC)NC(=O)[C@H](Cc1c[nH]c2ccccc12)NC(=O)[C@H](CCCCN)NC(=O)[C@H](Cc1ccccc1)NC(=O)[C@H](CC(C)C)NC(=O)[C@@H](NC(=O)[C@H](CC(N)=O)NC(=O)[C@H](CC(=O)O)NC(=O)[C@H](CC(N)=O)NC(=O)[C@@H](N)C(C)C)[C@@H](C)O)C(=O)N[C@@H](C)C(=O)N[C@@H](CC(N)=O)C(=O)NCC(N)=O (H-VNDNTLFKWMIANG-NH2) | inactive |
| CC[C@H](C)[C@H](NC(=O)[C@H](CCSC)NC(=O)[C@H](Cc1c[nH]c2ccccc12)NC(=O)[C@H](CCCCN)NC(=O)[C@H](Cc1ccccc1)NC(=O)[C@H](CC(C)C)NC(=O)[C@@H](NC(=O)[C@H](CC(N)=O)NC(=O)[C@H](CC(=O)O)NC(=O)[C@H](CC(N)=O)NC(=O)[C@@H](N)C(C)C)[C@@H](C)O)C(=O)N[C@@H](Cc1ccccc1)C(=O)N[C@@H](C)C(=O)NCC(N)=O (H-VNDNTLFKWMIFAG-NH2) | inactive |
| CC[C@H](C)[C@H](NC(=O)[C@H](CCSC)NC(=O)[C@H](Cc1c[nH]c2ccccc12)NC(=O)[C@H](CCCCN)NC(=O)[C@H](Cc1ccccc1)NC(=O)[C@H](C)NC(=O)[C@@H](NC(=O)[C@H](CC(N)=O)NC(=O)[C@H](CC(=O)O)NC(=O)[C@H](CC(N)=O)NC(=O)[C@@H](N)C(C)C)[C@@H](C)O)C(=O)N[C@@H](Cc1ccccc1)C(=O)N[C@@H](CC(N)=O)C(=O)NCC(N)=O (H-VNDNTAFKWMIFNG-NH2) | inactive |
| CC[C@H](C)[C@H](NC(=O)[C@H](CCSC)NC(=O)[C@H](C)NC(=O)[C@H](CCCCN)NC(=O)[C@H](Cc1ccccc1)NC(=O)[C@H](CC(C)C)NC(=O)[C@@H](NC(=O)[C@H](CC(N)=O)NC(=O)[C@H](CC(=O)O)NC(=O)[C@H](CC(N)=O)NC(=O)[C@@H](N)C(C)C)[C@@H](C)O)C(=O)N[C@@H](Cc1ccccc1)C(=O)N[C@@H](CC(N)=O)C(=O)NCC(N)=O (H-VNDNTLFKAMIFNG-NH2) | inactive |
| CC[C@H](C)[C@H](NC(=O)[C@H](CCSC)NC(=O)[C@H](Cc1c[nH]c2ccccc12)NC(=O)[C@H](CCCCN)NC(=O)[C@H](Cc1ccccc1)NC(=O)[C@H](CC(C)C)NC(=O)[C@@H](NC(=O)[C@H](CC(N)=O)NC(=O)[C@H](CC(=O)O)NC(=O)[C@H](CC(N)=O)NC(=O)[C@H](C)N)[C@@H](C)O)C(=O)N[C@@H](Cc1ccccc1)C(=O)N[C@@H](CC(N)=O)C(=O)NCC(N)=O (H-ANDNTLFKWMIFNG-NH2) | inactive |
| CC[C@H](C)[C@H](NC(=O)[C@H](CCSC)NC(=O)[C@H](Cc1c[nH]c2ccccc12)NC(=O)[C@H](CCCCN)NC(=O)[C@H](Cc1ccccc1)NC(=O)[C@H](CC(C)C)NC(=O)[C@@H](NC(=O)[C@H](C)NC(=O)[C@H](CC(=O)O)NC(=O)[C@H](CC(N)=O)NC(=O)[C@@H](N)C(C)C)[C@@H](C)O)C(=O)N[C@@H](Cc1ccccc1)C(=O)N[C@@H](CC(N)=O)C(=O)NCC(N)=O (H-VNDATLFKWMIFNG-NH2) | Active |
| CC[C@H](C)[C@H](NC(=O)[C@H](CCSC)NC(=O)[C@H](Cc1c[nH]c2ccccc12)NC(=O)[C@H](CCCCN)NC(=O)[C@H](Cc1ccccc1)NC(=O)[C@H](CC(C)C)NC(=O)[C@@H](NC(=O)[C@H](CC(N)=O)NC(=O)[C@H](CC(=O)O)NC(=O)[C@H](CC(N)=O)NC(=O)[C@@H](NC(=O)[C@H](CC(=O)O)NC(=O)[C@H](CCC(=O)O)NC(=O)[C@@H](N)CCC(=O)O)C(C)C)[C@@H](C)O)C(=O)N[C@@H](Cc1ccccc1)C(=O)N[C@@H](CC(N)=O)C(=O)NCC(N)=O (H-EEDVNDNTLFKWMIFNG-NH2) | inactive |
| CC[C@H](C)[C@H](NC(=O)[C@H](CCSC)NC(=O)[C@H](Cc1c[nH]c2ccccc12)NC(=O)[C@H](CCCCN)NC(=O)[C@H](Cc1ccccc1)NC(=O)[C@H](CC(C)C)NC(=O)[C@@H](NC(=O)[C@H](CC(N)=O)NC(=O)[C@H](CC(=O)O)NC(=O)[C@H](CC(N)=O)NC(=O)[C@@H](N)C(C)C)[C@@H](C)O)C(=O)N[C@@H](Cc1ccccc1)C(=O)N[C@@H](CC(N)=O)C(=O)N[C@@H](C)C(N)=O (H-VNDNTLFKWMIFNA-NH2) | Active |
